Source: EP0406760B1, “Plant growth regulating composition” (SUMITOMO CHEMICAL COMPANY, LIMITED, priority 1989, dated 1991)

Legend:
morningglory = assay: Inhibitory effect on antocyanin production in morningglory (soil or foliar treatment); format: in vivo, morningglory (var.: Scarlet Ohara); conditions: soil and foliar spray treatments
Experimental: Seeds of morningglory (var.: Scarlet Ohara) was sowed in small pots (diameter, 8 cm) and cultivated in a greenhouse. At the time of development of cotyledons (9 days after sowing), short-day treatment was performed for 1 week to induce flowering. Five days prior to flowering (length of buds being about 1 to 2 cm), a designated amount of the compound (I) was applied to the soil or sprayed to the foliage of the plant. Cultivation was continued, and color of petals was visually observed in contrast to the non-treated plot and evaluated into five indices ranging from (-: no influence) to (++++: completely whitened).

antocyanin production = assay: Inhibitory effect on antocyanin production in red cabbage seedlings in water culture; format: in vivo, red cabbase (var.: Ruby Ball); conditions: 5 days at 25°C under 8000 luxes, in contrast to the non-treated plot
Experimental: Water culture (10 ml) containing the compound (I) was charged in a reaction vessel, and on adsorbed cotton laid down therein 15 seeds of red cabbase (var.: Ruby Ball) were sowed and cultivated for 5 days at 25°C under 8000 luxes. The shoot of the […] cabbage was cut and antocyanin was extracted with 1N hydrochloric acid (5 ml). The amount of antocyanin thus extracted was calculated by meauring an absorption at 535 nm on a spectrophotometer. The concentration of the compound (I) which inhibits 50 % the antocyanin production was calculated in contrast to the non-treated plot. Still, neither abnormality in the vegetative part nor suppression of growth of the test plant due to Compound (I) could be observed.

wheat = assay: Inhibitory effect on lignin production in wheat and softening of wheat culm; format: in vivo, Wheat (var.: Nohrin No. 61); design: key: -: unchanged; +++: prominently softened; conditions: wettable powder applied to the soil, hardness of culms determined manually versus untreated
From the text: Wheat seeds (var.: Nohrin No. 61) were sowed in small pots (6 seeds/pot) and cultivated in a greenhouse for about one month. When differentiation of culm was recognized, a designated amount of the compound in the form of a wettable powder according to Formulation Example 2 was applied to the soil, and cultivation was continued until blooming. Hardness of wheat culms in contrast to those of untreated was manually determined and evaluated into four indices ranging from (-: unchanged) to (+++: prominently softened).

[1] = system: chlorogenic acid production; assay: Inhibitory effect on chlorogenic acid production in sunflower; format: in vivo, Sunflowers (var.: Russian Sunflower); conditions: 1000 ppm wettable powder sprayed over the flowers; seed endosperm, HPLC; non-treated 3.4
Experimental: Sunflowers (var.: Russian Sunflower) were grown in a greenhouse for two weeks and transplanted in Wagner's pots (1/5000 are) and cultivated for 2 months outdoors. When 5 to 10 days elapsed after blooming, a designated amount of the compound in the form of a wettable powder according to Formulation Example 2 was sprayed over the flowers, from which seeds were harvested. Endosperm of the seeds were crushed and subjected to boiling-extraction with ethanol and filtration. The filtrate was diluted with 0.05 M aqueous H₃PO₄ and further filtered. The amount of chlorogenic acid was quantitatively analysed by HPLC (column: Nucleosil C18 (8 mm x 25 cm); eluent: methanol : 0.05 M H₃PO₄ (35 : 75)).

scopolamine production = assay: Promoting effect on scopolamine production in hairy root culture; format: cell-based, Duboisia leichhardtii; conditions: per culture (50 ml), 28 days after addition
Experimental: Hairy root of Duboisia leichhardtii are known to produce scopolamine once vegetative parts were infected with Agrobacterium rhizogenes (Plant Science, 59, 191 - 201 (1989)). One hairy root of Duboisia (var.: DL47-1) (wet content, 100 mg) was inoculated in a liquid HF-3 medium (50 ml) and subjected to rotation-culture with a speed of 85 rotations/min at 25°C in the dark place. After twenty-one days, 1000-fold dilution of a dimethylsulfoxide solution of Compound (I) was added to the culture medium to make its final concentration constant. Twenty-eight days thereafter, scopolamine in the hairy roots and the medium was respectively extracted and its amount was measured on a high performance liquid chromatography (HPLC).

NOC(Cc1ccccc1)C(=O)O (stereo not shown) [AOPP, 2-aminoxy-3-phenylpropionic acid, reference compound]
phytotoxicity / adverse effect in the treated plants (morningglory): severe phytotoxicity (withering of leaves) | Concentration of 50 % inhibition of antocyanin production (antocyanin production): 4 ppm

Cc1c(F)cccc1NC(=N)C(=O)O [Compound No. 1, N-(3-fluoro-2-methylphenyl)amidinoformic acid]
Softening index (wheat; 4 mg/pot): +++ | Content of chlorogenic acid [1]: 1.3 µg/mg fr.wt | Concentration of 50 % inhibition of antocyanin production (antocyanin production): 0.04 ppm | Amount of scopolamine (mg) Medium (scopolamine production; final concentration 0.1 mg/l): 2.7 mg | Amount of scopolamine (mg) Root (scopolamine production; final concentration 0.1 mg/l): 2.1 mg | Amount of scopolamine (mg) Total (scopolamine production; final concentration 0.1 mg/l): 4.8 mg | Amount of scopolamine (mg) Medium (scopolamine production; final concentration 1.0 mg/l): 3.4 mg | Amount of scopolamine (mg) Root (scopolamine production; final concentration 1.0 mg/l): 2.4 mg | Amount of scopolamine (mg) Total (scopolamine production; final concentration 1.0 mg/l): 5.8 mg

Cc1c(Cl)cccc1NC(=N)C(=O)O [Compound No. 3, N-(3-chloro-2-methylphenyl)amidinoformic acid]
Softening index (wheat; 2 mg/pot): +++ | Content of chlorogenic acid [1]: 1.0 µg/mg fr.wt | Concentration of 50 % inhibition of antocyanin production (antocyanin production): 0.02 ppm

Cc1ccc(Cl)cc1NC(=N)C(=O)O [Compound No. 4, N-(5-chloro-2-methylphenyl)amidinoformic acid]
Concentration of 50 % inhibition of antocyanin production (antocyanin production): 0.1 ppm

Cc1cc(F)ccc1NC(=N)C(=O)O [Compound No. 5, N-(4-fluoro-2-methylphenyl)amidinoformic acid]
Concentration of 50 % inhibition of antocyanin production (antocyanin production): 0.1 ppm

CCOC(=O)C(=N)Nc1cccc(F)c1C [Compound No. 26, ethyl N-(3-fluoro-2-methylphenyl)amidinoformate]
Concentration of 50 % inhibition of antocyanin production (antocyanin production): 0.06 ppm

Cc1c(Cl)cccc1NC(=N)C(=O)[O-].[Na+] [Compound No. 30, sodium salt of N-(3-chloro-2-methylphenyl)amidinoformic acid]
Concentration of 50 % inhibition of antocyanin production (antocyanin production): 0.05 ppm

Cc1c(Cl)cccc1NC(=N)C(=O)[O-].[K+] [Compound No. 31, potassium salt of N-(3-chloro-2-methylphenyl)amidinoformic acid]
Concentration of 50 % inhibition of antocyanin production (antocyanin production): 0.05 ppm
